Measurements as given in US8927551B2, “Isoxazolines as inhibitors of fatty acid amide hydrolase” (Infinity Pharmaceuticals, Inc., priority 2009, dated 2015).

Molecular target: T1, human FAAH (Homo sapiens, UniProt O00519)
T1 construct: host or cells: COS-7 cells, transient transfection; 13,000 g membrane fraction solubilised in 1% Triton X-100
T1 sequence (O00519 1-579): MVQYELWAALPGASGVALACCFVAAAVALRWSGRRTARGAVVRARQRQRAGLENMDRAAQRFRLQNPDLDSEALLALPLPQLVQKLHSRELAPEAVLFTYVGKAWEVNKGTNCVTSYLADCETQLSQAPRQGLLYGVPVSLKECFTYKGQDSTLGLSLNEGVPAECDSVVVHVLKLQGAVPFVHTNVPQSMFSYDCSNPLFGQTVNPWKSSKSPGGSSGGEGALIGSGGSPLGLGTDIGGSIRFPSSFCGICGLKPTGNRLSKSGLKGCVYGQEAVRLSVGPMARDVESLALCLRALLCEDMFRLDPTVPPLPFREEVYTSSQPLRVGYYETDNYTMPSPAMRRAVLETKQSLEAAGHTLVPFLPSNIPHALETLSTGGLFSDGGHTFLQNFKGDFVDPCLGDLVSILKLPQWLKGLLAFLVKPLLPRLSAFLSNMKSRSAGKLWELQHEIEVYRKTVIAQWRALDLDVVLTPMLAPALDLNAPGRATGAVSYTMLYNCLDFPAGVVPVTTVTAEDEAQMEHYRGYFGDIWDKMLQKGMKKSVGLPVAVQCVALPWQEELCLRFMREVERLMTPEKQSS
Test: Inhibition of human FAAH (fluorescence assay, AMC Arachidonoyl Amide substrate)
Type: biochemical
Conditions: solubilized human FAAH from transfected COS-7 cells; 30 minutes preincubation; 20 μM AMC-Arachidonoyl substrate; 4 hours at room temperature
Experimental: Human FAAH Preparation: COS-7 cells were split the day before, 1:5 into 150 mm×25 mm cell culture dishes (Corning Inc., Cat. No. 430599). Transient transfection took place at 30-40% confluency according to FuGENE 6 Transfection Reagent (Roche, Cat. No. 11814 443 001).
Transfection Procedure: The FuGENE transfection 6 reagent (45 uL) was added to 1410 μL of media (DMEM, serum free without pen/strep) in a 15 mL conical tube and incubated at room temp for 5 minutes, followed by the addition of FAAH plasmid DNA (15 μg) (OriGene Cat. No. TC119221, Genbank Accession No. NM 001441.1, 0.67 ug/uL) and a further incubation of 15 minutes at room temperature. The resulting solution was added into one dish of 30-40% confluent COS-7 cells in a drop-wise manner. The COS-7 cell dish was subsequently incubated for 48 hours. The cells are then harvested.
Harvest procedure: Media was aspirated from the dishes and the cells rinsed with 10 mL PBS. The PBS was removed and 3 mL of PBS added to the dish. The dish was scraped to resuspend the cells, and the subsequent cell suspension collected into a 15 mL conical tube. The cells were pelleted by centrifugation at 1200 rpm for 5 minutes in a bench top centrifuge. PBS was removed and the cell pellet snap frozen in liquid nitrogen and stored at −80° C.
COS-7 Cells—FAAH Purification: • (1) Fractionation: Frozen cell pellets from transient transfections were thawed on ice and resuspended in 12.5 mM Hepes pH 8.0, 100 mM NaCl, 1 mM EDTA (10 mL/0.2 g cell pellet). The pellets were dounce homogenized and then sonicated to produce cell extract. The cell extract was subsequently centrifuged at 1000 g to remove cellular debris. The pellet was discarded and the supernatant centrifuged at 13,000 g for 20 minutes. The pellet contained membrane bound FAAH. The supernatant was discarded and the pellet resolubilized. • (2) Re-solubilization: The fraction of interest, (13,000 g, membrane fraction) was re-suspended in 2.3 mL re-suspension buffer (20 mM Hepes pH 7.8, 10% v/v Glycerol, 1 mM EDTA, 1% Triton X-100) and the sample incubated on ice for 1 hour and then centrifuged to remove any particulate matter. The supernatant containing solubilized human FAAH was aliquoted and snap frozen in liquid nitrogen and stored at −80° C. until use. • (3) Characterization: Protein Concentration determined by Bradford assay. • SDS gel and Western blot to confirm presence of FAAH • FAAH activity assay • Km determination—96-well assay • Linear dependence—96-well assay • Standard compound Ki determination—384-well assay
Human FAAH assay; Experimental Protocol: A 0.1 mg/mL Human FAAH solution was made up in FAAH reaction buffer, and 24 ul pipeted into a 384 well plate. To this was added 1 μL of a 3 fold serially diluted inhibitor from a DMSO stock solution. The FAAH solution and inhibitor were incubated for 30 minutes at room temperature. The FAAH reaction was initiated by the addition of 25 μL of 40 μM AMC Arachidonoyl Amide in FAAH reaction buffer, yielding a final reaction human FAAH preparation concentration of 0.05 mg/ml and AMC-Arachidonoyl substrate concentration of 20 μM, reaction volume 50 μL. The reaction was allowed to proceed for 4 hours at room temperature. The reaction was stopped by the addition of 25 μL 12 μM a-ketoheterocycle (Cayman Chemicals, catalogue # 10435). The microtiter plate was read in the envision plate reader.
The raw fluorescence was plotted on the y axis and the inhibitor concentration on the x axis to give a dose response inhibition curve. The data was fitted to a single site competitive inhibition equation, fixing the Km for the human enzyme to 12 μM and 9 μM respectively.

SMILES	Ki [nM]
BrC1=NO[C@@H](c2ccncc2)C1 [II-1a]	≥ 1000
BrC1=NO[C@H](c2ccncc2)C1 [II-1b]	≥ 1000
BrC1=NO[C@@H](c2cccnc2)C1 [II-2a]	≥ 1000
BrC1=NO[C@H](c2cccnc2)C1 [II-2b]	≥ 1000
BrC1=NO[C@@H](c2ccccn2)C1 [II-3a]	≥ 1000
BrC1=NO[C@H](c2ccccn2)C1 [II-3b]	≥ 1000
BrC1=NO[C@H](c2cnn(-c3ccccc3)c2)C1 [II-4-b]	100 to 1000
BrC1=NO[C@@H](c2cnn(-c3ccccc3)c2)C1 [II-4a]	100 to 1000
BrC1=NO[C@@H](c2csc(-c3ccccc3)n2)C1 [II-5a]	≥ 1000
BrC1=NO[C@H](c2csc(-c3ccccc3)n2)C1 [II-5b]	≥ 1000
BrC1=NO[C@@H](c2cnc(-c3ccccc3)s2)C1 [II-6a]	≤ 100
BrC1=NO[C@H](c2cnc(-c3ccccc3)s2)C1 [II-6b]	≤ 100
BrC1=NO[C@@H](c2ccc(-c3ccccc3)s2)C1 [II-7a]	≤ 100
BrC1=NO[C@H](c2ccc(-c3ccccc3)s2)C1 [II-7b]	≤ 100
BrC1=NO[C@@H](c2cc(-c3ccccc3)cs2)C1 [II-8a]	≤ 100
BrC1=NO[C@H](c2cc(-c3ccccc3)cs2)C1 [II-8b]	≤ 100
BrC1=NO[C@@H](c2ccc3ncccc3c2)C1 [II-9a]	≤ 100
BrC1=NO[C@H](c2ccc3ncccc3c2)C1 [II-9b]	≤ 100
BrC1=NO[C@@H](c2cnc3ccccc3c2)C1 [II-10a]	≤ 100
BrC1=NO[C@H](c2cnc3ccccc3c2)C1 [II-10b]	≤ 100

SMILES	Ki [nM]
BrC1=NO[C@@H](c2ccc3nccnc3c2)C1 [II-11a]	≤ 100
BrC1=NO[C@H](c2ccc3nccnc3c2)C1 [II-11b]	≤ 100
CC(C)(C)OC(=O)Nc1nc2ccc([C@H]3CC(Br)=NO3)cc2s1 [II-13a]	100 to 1000
CC(C)(C)OC(=O)Nc1nc2ccc([C@@H]3CC(Br)=NO3)cc2s1 [II-13b]	100 to 1000
CC(C)(C)OC(=O)N1CCN(C[C@H]2CC(Br)=NO2)CC1 [II-14a]	≤ 100
CC(C)(C)OC(=O)N1CCN(C[C@@H]2CC(Br)=NO2)CC1 [II-14b]	≤ 100
O=C(OCc1ccccc1)N1CCC([C@H]2CC(Br)=NO2)CC1 [II-15a]	100 to 1000
O=C(OCc1ccccc1)N1CCC([C@@H]2CC(Br)=NO2)CC1 [II-15b]	100 to 1000
CC(C)(C)OC(=O)N1CCC([C@H]2CC(Br)=NO2)CC1 [II-16a]	≤ 100
CC(C)(C)OC(=O)N1CCC([C@@H]2CC(Br)=NO2)CC1 [II-16b]	≤ 100
Clc1ccc(-c2ncc([C@H]3CC(Br)=NO3)s2)cc1 [II-17a]	≤ 100
Clc1ccc(-c2ncc([C@@H]3CC(Br)=NO3)s2)cc1 [II-17b]	≤ 100
C[C@]1(c2cnc(-c3ccccc3)s2)CC(Br)=NO1 [II-18a]	≤ 100
C[C@@]1(c2cnc(-c3ccccc3)s2)CC(Br)=NO1 [II-18b]	≤ 100
C[C@H]1C(Br)=NO[C@H]1c1cnc(-c2ccccc2)s1 [II-19a]	≤ 100
C[C@@H]1C(Br)=NO[C@@H]1c1cnc(-c2ccccc2)s1 [II-19b]	≤ 100
C[C@@H]1C(Br)=NO[C@H]1c1cnc(-c2ccccc2)s1 [II-20a]	≥ 1000
C[C@H]1C(Br)=NO[C@@H]1c1cnc(-c2ccccc2)s1 [II-20b]	≥ 1000
c1ccc(-c2ncc([C@H]3CC(Oc4cccnc4)=NO3)s2)cc1 [II-21a]	≤ 100
c1ccc(-c2ncc([C@@H]3CC(Oc4cccnc4)=NO3)s2)cc1 [II-21b]	≤ 100

SMILES	Ki [nM]
C[C@]1(c2cnc(-c3ccccc3)s2)CC(Oc2cncnc2)=NO1 [II-22a]	≤ 100
C[C@@]1(c2cnc(-c3ccccc3)s2)CC(Oc2cncnc2)=NO1 [II-22b]	≤ 100
C[C@]1(c2cnc(-c3ccccc3)s2)CC(Oc2cccnc2)=NO1 [II-23a]	≤ 100
C[C@@]1(c2cnc(-c3ccccc3)s2)CC(Oc2cccnc2)=NO1 [II-23b]	≤ 100
Cc1nc(-c2ccccc2)sc1[C@@]1(C)CC(Br)=NO1 [II-24a]	100 to 1000
Cc1nc(-c2ccccc2)sc1[C@]1(C)CC(Br)=NO1 [II-24b]	100 to 1000
BrC1=NO[C@@H](c2ccc(-c3cccnc3)s2)C1 [II-25a]	≤ 100
BrC1=NO[C@H](c2ccc(-c3cccnc3)s2)C1 [II-25b]	≤ 100
c1cncc(-c2ccc([C@H]3CC(Oc4cncnc4)=NO3)s2)c1 [II-26a]	≤ 100
c1cncc(-c2ccc([C@@H]3CC(Oc4cncnc4)=NO3)s2)c1 [II-26b]	≤ 100
O=C(O)c1ccc(OC2=NO[C@@H](c3ccc(-c4cccnc4)s3)C2)cn1 [II-27a]	≤ 100
O=C(O)c1ccc(OC2=NO[C@H](c3ccc(-c4cccnc4)s3)C2)cn1 [II-27b]	≤ 100
CS(=O)(=O)c1ccc(OC2=NO[C@@H](c3cnc(-c4ccccc4)s3)C2)cn1 [II-28a]	≤ 100
CS(=O)(=O)c1ccc(OC2=NO[C@H](c3cnc(-c4ccccc4)s3)C2)cn1 [II-28b]	≤ 100
C[C@]1(c2cnc(-c3ccccc3)s2)CC(Oc2ccc(S(C)(=O)=O)nc2)=NO1 [II-29a]	≤ 100
C[C@@]1(c2cnc(-c3ccccc3)s2)CC(Oc2ccc(S(C)(=O)=O)nc2)=NO1 [II-29b]	≤ 100
O[C@H](CNC1=NO[C@@H](c2cc(-c3ccccc3)cs2)C1)c1ccccc1 [II-30a]	≥ 1000
O[C@@H](CNC1=NO[C@@H](c2cc(-c3ccccc3)cs2)C1)c1ccccc1 [II-31a]	≥ 1000
O[C@@H](CNC1=NO[C@H](c2cc(-c3ccccc3)cs2)C1)c1ccccc1 [II-31b]	≥ 1000
